# Values of other authors as cited in patent US5811459A, “Ortho substituted aromatic compounds useful as antagonists of the pain enhancing effects of E-type prostaglandins” (Zeneca Limited, priority 1994, dated 1998).
# What was measured:
# [1] = tested on: guinea pig ileum or dog fundus; conditions: some tissues such as guinea pig ileum or dog fundus
# [2] = tested on: cat trachea or chick ileum; conditions: other tissues such as the cat trachea or chick ileum
smiles,measurement,setting,value
CC(=O)NNC(=O)N1Cc2ccccc2Oc2ccc(Cl)cc21 [SC-19220],block of the effect of PGE2,[1],blocks the effect of PGE2
same,block of the effect of PGE2,[2],not on other tissues
